Results taken from patent US11827628B2, “Compositions and methods for inhibition of the JAK pathway” (Rigel Pharmaceuticals, Inc., priority 2005, dated 2023).
Where two headings read alike, the source gives them in different places.

Assays:
[1] = system: IL-4 stimulated expression of CD23 in human Ramos B cells (JAK-1 and JAK-3); test: Assay for Ramos B-Cell Line Stimulated with IL-4 (CD23 upregulation, FACS); format: cell-based; conditions: read-out: IC50, Example 41
In short: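 Human Ramos B cells in RPMI with 5% serum were pre-incubated with compound or DMSO for 1 h at 37 °C, then stimulated with IL-4 at a final 50 units/mL for 20-24 h. CD23 upregulation was measured by anti-CD23-PE staining and flow cytometry, and IC50 values were calculated.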

[2] = system: up-regulation of ICAM-1 (CD54) by IFNγ in U937 human monocytic cells; test: U937 IFNγ ICAM1 FACS Assay; format: cell-based; conditions: ICAM-1 expression by FACS, read-out: IC50, Example 44
In short: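 Readout was the geometric-mean APC anti-ICAM-1 signal by FACS on live U937 monocytic cells, with % live cells also recorded. Cells were exposed to compounds (8 points, 3-fold dilutions, duplicates) for 30 min at 37 °C before 18–24 h of IFNγ stimulation. EC50 values were computed from the dose curve.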

[3] = Homo sapiens, Ramos, Ramos B-cell line stimulated with IL-4, CD23 expression by FACS
[4] = Homo sapiens, U-937, U937 cells stimulated with IFNγ
[5] = Ramos B cells stimulated with IL-4, CD23 expression by FACS
[6] = U937 cells stimulated with IFNγ

With Cc1ccc(Nc2ncc(F)c(NCCc3ccc(-c4ccncc4)cc3)n2)cc1S(N)(=O)=O [III-77, N2-(3-Aminosulfonyl-4-methylphenyl)-5-fluoro-N4-[4-(4-pyridinyl)phenethyl]-2,4-pyrimidinediamine] the IC50 [1, 3] was 0.177 µM and the IC50 [2, 4] was 0.681 µM.
CN(C)C(=O)COc1ccc(Nc2nc(Nc3cccc(S(N)(=O)=O)c3)ncc2F)cc1Cl [Compound I-132, N2-(3-Aminosulfonylphenyl)-N4-(3-chloro-4-dimethylaminocarbonylmethoxyphenyl)-5-fluoro-2,4-pyrimidinediamine] showed an IC50 [1, 3] of 0.351 µM and an IC50 [2, 4] of 2.72 µM.
Work on NS(=O)(=O)c1cccc(Nc2ncc(F)c(Nc3ccc(Oc4cccnc4)cc3)n2)c1 [II-11, N2-(3-Aminosulfonylphenyl)-5-fluoro-N4-[4-(3-pyridyloxy)phenyl]-2,4-pyrimidinediamine] yielded an IC50 [1, 3] of 0.107 µM and an IC50 [2, 4] of 0.912 µM.
Cc1cnc(Nc2ccc(Cl)c(S(N)(=O)=O)c2)nc1Nc1ccc(CCC#N)cc1 [III-12, N2-(3-Aminosulfonyl-4-chlorophenyl)-N4-[4-(2-cyanoethyl)phenyl]-5-methyl-2,4-pyrimidinediamine] gave an IC50 [1, 3] of 0.07 µM and an IC50 [2, 4] of 0.321 µM.
Work on Cc1ccc(Nc2ncc(C)c(Nc3ccc(OCC(=O)N(C)C)c(F)c3)n2)cc1S(N)(=O)=O [Compound I-139, N2-(3-Aminosulfonyl-4-methylphenyl)-N4-(4-dimethylaminocarbonylmethoxy-3-fluorophenyl)-5-methyl-2,4-pyrimidinediamine] yielded an IC50 [1, 3] of 0.375 µM and an IC50 [2, 4] of 3.26 µM.
Work on Cc1ccc(Nc2ncc(C)c(Nc3ccc(OCC#N)cc3)n2)cc1S(N)(=O)=O [Compound I-59, N2-(3-Aminosulfonyl-4-methylphenyl)-N4-(4-cyanomethoxyphenyl)-5-methyl-2,4-pyrimidinediamine] yielded an IC50 [1, 3] of 0.00655 µM and an IC50 [2, 4] of 0.0577 µM.
COc1ccc(Nc2nc(Nc3cccc(S(=O)(=O)NN4CCC(C)CC4)c3)ncc2F)cc1Cl [VI-9, N4-(3-Chloro-4-methoxyphenyl)-5-fluoro-N2-[3-(4-methylpipendin-1-yl)aminosulfonylphenyl]-2,4-pyrimidinediamine] showed an IC50 [1, 5] of 0.0533 µM and an IC50 [2, 6] of 14.5 µM.
C=CCNC(=O)COc1ccc(Nc2nc(Nc3cccc(S(N)(=O)=O)c3)ncc2F)cc1 [Compound I-158, N4-(4-Allylaminocarbonylmethoxyphenyl)-N2-(3-aminosulfonylphenyl)-5-fluoro-2,4-pyrimidinediamine] gave an IC50 [1, 3] of 0.297 µM and an IC50 [2, 4] of 1.38 µM.
For Cc1ccc(Nc2ncc(F)c(Nc3ccc(CCC#N)c(Cl)c3)n2)cc1S(N)(=O)=O [III-21, N2-(3-Aminosulfonyl-4-methylphenyl)-N4-[3-chloro-4-(2-cyanoethyl)phenyl]-5-fluoro-2,4-pyrimidinediamine], the IC50 [1, 3] was 0.0303 µM and the IC50 [2, 4] was 0.339 µM.
NS(=O)(=O)c1cccc(Nc2ncc(F)c(Nc3ccc(Cn4cncn4)cc3)n2)c1 [III-100, N2-(3-Aminosulfonylphenyl)-5-fluoro-N4-{4-[1-(1,2,4-thazolyl)methyl]phenyl}-2,4-pyrimidinediamine] showed an IC50 [1, 5] of 0.162 µM and an IC50 [2, 6] of 1.91 µM.
Cc1cnc(Nc2cccc(S(N)(=O)=O)c2)nc1Nc1ccc(OCC#N)cc1 [Compound I-58, N2-(3-Aminosulfonylphenyl)-N4-(4-cyanomethoxyphenyl)-5-methyl-2,4-pyrimidinediamine] showed an IC50 [1, 3] of 0.00505 µM and an IC50 [2, 4] of 0.066 µM.
In the case of Cc1ccc(Nc2ncc(F)c(Nc3ccc(Oc4cccnc4)cc3)n2)cc1S(N)(=O)=O [II-12, N2-(3-Aminosulfonyl-4-methylphenyl)-5-fluoro-N4-[4-(3-pyridyloxy)phenyl]-2,4-pyrimidinediamine], the IC50 [1, 3] is reported as 0.0563 µM and the IC50 [2, 4] is reported as 1.19 µM.
In the case of CNC(=O)COc1ccc(Nc2nc(Nc3cccc(S(N)(=O)=O)c3)ncc2C)cc1F [Compound I-155, N2-(3-Aminosulfonylphenyl)-N4-(3-fluoro-4-methylaminocarbonylmethoxyphenyl)-5-methyl-2,4-pyrimidinediamine], the IC50 [1, 3] is reported as 0.118 µM and the IC50 [2, 4] is reported as 65.1 µM.
For COC(=O)c1ccc(Nc2nc(Nc3ccc(F)c(S(N)(=O)=O)c3)ncc2F)s1 [IX-48, N2-(3-Aminosulfonyl-4-fluorophenyl)-5-fluoro-N4-(5-methoxycarbonyl-thiophene-2-yl)-2,4-pyrimidinediamine], the IC50 ([1]; Homo sapiens, Ramos, Ramos B cells stimulated with IL-4, CD23 expression by FACS) was 0.258 µM.
NS(=O)(=O)c1ccc(Nc2ncc(F)c(Nc3ccc(OCCN4CCOCC4)cc3)n2)cc1 [Compound I-205, N2-(4-Aminosulfonylphenyl)-5-fluoro-N4-[4-(2-morpholinoethyloxy)phenyl)-2,4-pyrimidinediamine] was tested, and the IC50 [1, 3] was 0.315 µM.
For Cc1ccc(Nc2ncc(F)c(NCCc3ccc(-n4ccnc4)cc3)n2)cc1S(N)(=O)=O [III-88, N2-(3-Aminosulfonyl-4-methylphenyl)-5-fluoro-N4-[4-(1-imidazolyl)phenethyl]-2,4-pyrimidinediamine], the IC50 [1, 3] was 0.141 µM and the IC50 [2, 4] was 2.04 µM.
In the case of Cc1noc(CCc2ccc(Nc3nc(Nc4cccc(S(N)(=O)=O)c4)ncc3F)cc2)n1 [III-106, N2-(3-Aminosulfonylphenyl)-5-fluoro-N4-[4-(3-methyl-1,2,4-oxadiazol-5-yl)ethylenephenyl]-2,4-pyrimidinediamine], the IC50 [1, 5] is reported as 0.0428 µM and the IC50 [2, 6] is reported as 0.492 µM.
With Cc1ccc(Nc2ncc(C)c(Nc3ccc(OCC(N)=O)cc3)n2)cc1S(N)(=O)=O [Compound I-110, N4-(4-Aminocarbonylmethoxyphenyl)-N2-(3-aminosulfonyl-4-methylphenyl)-5-methyl-2,4-pyrimidinediamine] the IC50 [1, 3] was 0.358 µM and the IC50 [2, 4] was 3.93 µM.
COc1cc(Nc2nc(Nc3cccc(S(N)(=O)=O)c3)ncc2F)ccc1OCC#N [Compound I-46, N2-(3-Aminosulfonylphenyl)-N4-(4-cyanomethoxy-3-methoxyphenyl)-5-fluoro-2,4-pyrimidinediamine] gave an IC50 [1, 3] of 0.113 µM and an IC50 [2, 4] of 0.751 µM.
NS(=O)(=O)c1cccc(Nc2ncc(F)c(Nc3ccc(CN4CCS(=O)(=O)CC4)cc3)n2)c1 [III-110, N2-(3-Aminosulfonylphenyl)-5-fluoro-N4-{4-[(1,1-dioxothiomorpholin-4-yl-)methyl]phenyl}-2,4-pyrimidinediamine] was tested, and the IC50 [1, 5] was 0.247 µM and the IC50 [2, 6] was 13.6 µM.
In the case of COc1ccc(CN2C(=O)C(C)Oc3ccc(Nc4nc(Nc5ccc(S(N)(=O)=O)cc5)ncc4F)cc32)cc1 (racemic) [Compound V-4, Racemic N2-(4-Aminosulphonylphenyl)-5-fluoro-N4-[2-methyl-3-oxo-4-(4-methoxybenzyl)-benz[1,4]oxazin-6-yl]-2,4-pyrimidinediamine], the IC50 [1, 5] is reported as 0.108 µM.
In the case of Cc1ccc(Nc2ncc(F)c(Nc3ccc(CCOC(N)=O)cc3)n2)cc1S(N)(=O)=O [III-53, N4-{4-[2-(Aminocarbonyloxy)ethyl]phenyl}-N2-(3-aminosulfonyl-4-methylphenyl)-5-fluoro-2,4-pyrimidinediamine], the IC50 [1, 3] is reported as 0.0977 µM and the IC50 [2, 4] is reported as 1.13 µM.
N#CCOc1ccc(Nc2nc(Nc3ccc(S(N)(=O)=O)cc3)ncc2F)cc1-c1ccn(CC#N)n1 [Compound I-52, N2-(4-Aminosulfonylphenyl)-N4-[4-cyanomethoxy-3-(1-cyanomethylpyrazol-3-yl)phenyl]-5-fluoro-2,4-pyrimidinediamine] gave an IC50 [1, 3] of 0.152 µM and an IC50 [2, 4] of 68.7 µM.
In the case of Cc1ccc(Nc2ncc(F)c(Nc3ccc(OCC#N)c(CO)c3)n2)cc1S(N)(=O)=O [Compound I-51, N2-(3-Aminosulfonyl-4-methylphenyl)-N4-(4-cyanomethoxy-3-hydroxymethylphenyl)-5-fluoro-2,4-pyrimidinediamine], the IC50 [1, 3] is reported as 0.263 µM and the IC50 [2, 4] is reported as 32.2 µM.
Molecule CNC(=O)OCCc1ccc(Nc2nc(Nc3cccc(S(N)(=O)=O)c3)ncc2F)cc1 [III-60, N2-(3-Aminosulfonylphenyl)-5-fluoro-N4-{4-[2-(methylaminocarbonyloxy)ethyl]phenyl}-2,4-pyrimidinediamine] has an IC50 [1, 3] of 0.135 µM and an IC50 [2, 4] of 1.01 µM.
Cc1cc(COc2ccc(Nc3nc(Nc4cccc(S(=O)(=O)NCc5oc(=O)oc5C)c4)ncc3F)cc2)no1 [Compound I-247, N2-{3-[(N-5-Methyl-1,3-dioxolene-2-one-4-yl)methylene]aminosulfonylphenyl}-5-fluoro-N4-[4-(5-methylisoxazol-3-yl)methyleneoxyphenyl]-2,4-pyrimidinediamine] gave an IC50 [1, 3] of 0.225 µM and an IC50 [2, 4] of 1.08 µM.
Cc1nnc(COc2ccc(Nc3nc(Nc4ccc(C)c(S(N)(=O)=O)c4)ncc3F)cc2)o1 [Compound I-279, N2-(3-Aminosulfonyl-4-methylphenyl)-5-fluoro-N4-[4-(5-methyl-1,3,4-oxadiazol-2-yl)methoxyphenyl]-2,4-pyrimidinediamine] showed an IC50 [1, 3] of 0.123 µM and an IC50 [2, 4] of 0.918 µM.
Molecule Cc1cc(Nc2nc(Nc3cccc(S(N)(=O)=O)c3)ncc2F)ccc1CCC#N [III-20, N2-(3-Aminosulfonylphenyl)-N4-[4-(2-cyanoethyl)-3-methylphenyl]-5-fluoro-2,4-pyrimidinediamine] has an IC50 [1, 3] of 0.043 µM and an IC50 [2, 4] of 3.33 µM.
In the case of “N4-(3,4-Dichlorophenyl)-5-fluoro-N2-[3-(4-methylpipendin-1-yl)aminosulfonylphenyl]-2,4-pyrimidinediamine [VI-10]”, the IC50 [1, 5] is reported as 0.22 µM.
Cc1cnc(Nc2ccc(Cl)c(S(N)(=O)=O)c2)nc1Nc1ccc(OCC(=O)N(C)C)c(Cl)c1 [Compound I-141, N2-(3-Aminosulfonyl-4-chlorophenyl)-N4-(3-chloro-4-dimethylaminocarbonylmethoxyphenyl)-5-methyl-2,4-pyrimidinediamine] gave an IC50 [1, 3] of 0.163 µM.
